How the values were obtained:
[1] = system: H3K9me peptide (22-mer, amino acids 1–21 of histone H3 with a C-terminal tyrosine); experiment: Isothermal titration calorimetry (ITC) of HP1α chromodomain constructs with H3K9me peptide; format: binding; conditions: for ΔS (entropy change) / Ka / ΔH (enthalpy change) / Kd: 20 °C; for ΔS (entropy change): calculated from Kd and ΔH; for Ka / ΔH (enthalpy change): pH 6.80, one-site binding model; for Kd: 20 mM KPB (pH 6.80), 10 mM NaCl; for fold weaker binding to H3K9me as compared with NCD^Δ1–9: relative to NCD^Δ1–9; for fold stronger binding to H3K9me than the CD alone: relative to CD (NCD^Δ1–19); for times more strongly bound H3K9me than the CD: relative to CD
Procedure: Protein solution (40 μM) was loaded into a VP-ITC isothermal titration calorimeter (Microcal, INC.) cell (active cell volume 1.4 ml). The solution was titrated against 400 μM ligand solution via a 250 μl titration syringe. Experiments were carried out at 20 °C. The ligand solution was prepared in the same buffer as the protein (20 mM KPB (pH 6.80), 10 mM NaCl). The heat of dilution generated by the ligand was subtracted, and the binding isotherms were fitted to a one-site binding model by using Origin 7 Software (Microcal, INC.). From the values of Kd and ΔH, the thermodynamic parameters, ΔG and ΔS were calculated according to the basic thermodynamic equations;

[2] = Small angle X-ray scattering (SAXS); format: physicochemical; conditions: for association state, in words: SAXS at 5, 10 and 15 mg/ml, no scattering from aggregated protein; for association state, in words / Dmax (maximum particle dimension): pH 6.8, 20 °C; for Rg (radius of gyration) / Estimated molecular weight (association state) / Dmax (maximum particle dimension): SAXS; for Rg (radius of gyration): Guinier plot; for Estimated molecular weight (association state): from I(0)/c compared to hen egg white lysozyme; for Dmax (maximum particle dimension): from P(r) function (GNOM); for Dmax (maximum particle dimension): values in Å; for Rg (radius of gyration): values in Å
Procedure: To confirm the structural differences between unmod-NCD and phos-NCD, small angle X-ray scattering (SAXS) experiments were carried out on CD, unmod-NCD, and phos-NCD. To check inter-particle interference, SAXS data were collect at three different protein concentrations, 5, 10 and 15 mg/ml (Supplementary Fig. S4). The radius of gyration Rg, and the estimated molecular weight from the forward scattering intensity I(0), of CD, unmod-NCD, and phos-NCD are summarized in Fig. 3. […] The Rg value of the CD at the three different protein concentrations was estimated as 14.0 ± 0.3, 13.8 ± 0.3 and 13.7 ± 0.2 Å, which are close to the Rg value calculated from the NMR structure of the CD (15.0 Å).
We converted the scattering profiles at 5 mg/ml to the P(r) function and the estimated maximum particle dimension, Dmax (Fig. 3). […] The Dmax of unmod-NCD (79 Å) and phos-NCD (94 Å) was larger than that of the CD (56 Å). The extended tail of the P(r) function and larger Dmax for unmod-NCD and phos-NCD is due to scattering from the N-terminal tail region in each case.
SAXS measurements were performed at 20 °C with a MicroMax007HF X-ray generator (Rigaku). A PILATUS100K detector (DECTRIS) at a distance of 561 mm from the sample was used to measure scattering intensities. Each sample solution was transferred to a quartz-window cell with a 1 mm path length. Circular averaging of the scattering intensities was carried out to obtain one-dimensional scattering data I(q) as a function of q (q = 4πsinθ/λ, where 2θ is the scattering angle and λ is the X-ray wavelength 1.5418 Å). To correct for interparticle interference, I(q) data were collected at three different protein concentrations (5, 10, and 15 mg/ml in 50 mM KPB (pH 6.8), 500 mM NaCl, and 5 mM DTT.). The total exposure times were 6 hours for 5 mg/ml, and 3 hours for both 10mg/ml and 15mg/ml. […] To estimate the molecular weight of samples, I(q) data were collected for hen egg white lysozyme (5.2 mg/ml in 50 mM KPB (pH 6.8), 500 mM NaCl). The data were processed by using the software applications embedded in the ATSAS package [ http://www.embl-hamburg.de/biosaxs/software.html]. The radius of gyration Rg and forward scattering intensity I(0) were estimated from the Guinier plot[35] of I(q) in the smaller angle region of qRg < 1.3. The distance distribution function P(r) was calculated in the program GNOM[36], where the experimental I(q) data were used in a q-range from 0.031 to 0.250 Å^−1. The maximum particle dimension Dmax was estimated from the P(r) function as the distance r for which P(r) = 0[35]. The I(q) and Rg of 20 models corresponding to the NMR structures were calculated by using the program CRYSOL[37] and averaged. The molecular weight of the sample was estimated by comparing I(0)/c (where c is the protein concentration) of the sample to that of lysozyme.

[3] = HSQC dilution check for dimer or multimer association; format: physicochemical; conditions: 10-fold diluted samples
Description: It might be possible that the differences in chemical shift observed between unmod-NCD and phos-NCD originate from different dimer or multimer associations due to their N-terminal tails.

[4] = VP-ITC, protein 40 μM in cell, titrated with 400 μM H3K9me peptide, one-site binding model
[5] = 5 mg/ml, exposure 1 h x6, 50 mM KPB (pH 6.8), 500 mM NaCl, 5 mM DTT, 20 °C
[6] = 10 mg/ml, exposure 1 h x3, pH 6.8, 20 °C
[7] = 15 mg/ml, exposure 1 h x3, pH 6.8, 20 °C

Row | Substance | ΔS (entropy change) [1] [cal/mol/K] | Ka [1] [M⁻¹] | ΔH (enthalpy change) [1] | Kd [1, 4] [nM] | fold weaker binding to H3K9me as compared with NCD^Δ1–9 [1] | fold stronger binding to H3K9me than the CD alone [1] | association state, in words [2] | Rg (radius of gyration) [2, 5] [Å] | Estimated molecular weight (association state) ([2]; 5 mg/ml) [kDa] | Dmax (maximum particle dimension) ([2]; 5 mg/ml) [Å] | Rg (radius of gyration) [2, 6] [Å] | Estimated molecular weight (association state) ([2]; 10 mg/ml) [kDa] | Rg (radius of gyration) [2, 7] [Å] | Estimated molecular weight (association state) ([2]; 15 mg/ml) [kDa] | times more strongly bound H3K9me than the CD [1] | fold stronger affinity for H3K9me than unmod-NCD ([1]; relative to unmod-NCD) | HSQC signal changes upon dilution [3] | binding to H3K9me relative to un-phosphorylated NCD^Δ1–9, in words [1] | Kd ([1]; value in nM) [nM]
1 | NCD^Δ1–4: N-terminal deletion mutant, amino acids 5–80 of HP1α | 7.75 | 1.31e+06 ± 50700 | -5.933 ± 0.02294 kcal/mol | 760 | about 4 -fold |  |  |  |  |  |  |  |  |  |  |  |  |  | 
2 | NCD^Δ1–9: N-terminal deletion mutant, amino acid 10–80 of HP1α | 5.66 | 6.04e+06 ± 255000 | -7.435 ± 0.01679 kcal/mol | 160 |  | about 83 -fold |  |  |  |  |  |  |  |  |  |  |  |  | 
3 | NCD^Δ1–14: acidic segment plus CD, amino acids 15–80 of HP1α | 1.13 | 397000 ± 40700 | -7.178 ± 0.1141 kcal/mol | 2520 |  | about 5 -fold |  |  |  |  |  |  |  |  |  |  |  |  | 
4 | NCD^Δ1–19: CD domain alone, amino acids 20–80 of HP1α | -13.0 | 75000 ± 2300 | -1.036E4±103.0 cal/mol | 13300 |  |  | monomer | 14.0 ± 0.3 | 6.6 | 56 | 13.8 ± 0.3 | 6.0 | 13.7 ± 0.2 | 6.1 |  |  |  |  | 
5 | phos-NCD: chromodomain with phosphorylated N-terminal tail, amino acids 1–80 of HP1α, co-expressed with casein kinase II | 2.23 | 5.87e+06 ± 521000 | -8.424 ± 0.044 kcal/mol | 170 |  |  | monomer | 18.9 ± 0.4 | 11.7 | 94 | 19.4 ± 0.4 | 11.7 | 19.8 ± 0.3 | 11.9 | about 80 times | approximately 10 -fold | no significant signal changes were observed |  | 
6 | phos-NCD^Δ1–4: NCD^Δ1–4 (amino acids 5–80) with phosphorylated serine residues | 1.14 | 2.61e+06 ± 236000 | -8.271 ± 0.05999 kcal/mol | 380 |  |  |  |  |  |  |  |  |  |  |  |  |  | recovered to a value similar to that of un-phosphorylated NCD^Δ1–9 | 
7 | phos-NCD^Δ1–9: phosphorylated NCD^Δ1–9 form, amino acids 10–80 of HP1α | 12.6 | 2.58e+07 ± 5.24e+06 | -6.233 ± 0.04246 kcal/mol |  |  | about 330 -fold |  |  |  |  |  |  |  |  | more than 300 times |  |  |  | 40
8 | unmod-NCD: chromodomain with un-phosphorylated N-terminal tail, amino acids 1–80 of HP1α | 3.16 | 564000 ± 25900 | -6.79 ± 0.04533 kcal/mol | 1770 | 6 -fold |  | monomer | 17.2 ± 0.4 | 8.8 | 79 | 17.0 ± 0.3 | 8.5 | 17.4 ± 0.3 | 8.8 |  |  | no significant signal changes were observed |  | 
